Measurements from ChEMBL document CHEMBL4334511, “Trivirensols: Selectively Bacteriostatic Sesquiterpene Trimers from the Australian Termite Nest-Derived Fungus Trichoderma virens CMB-TN16” (J Nat Prod, 2019).
pIC50: −log10 of the molar value. Calls of active or inactive are those of the source. The rule behind the calls is not given here.

Experiments:
[1] = test system: SW-620; experiment: Cytotoxicity against human SW620 cells assessed as reduction in cell viability upto 30 uM incubated for 48 hrs by MTT assay; type: cell-based; details: sw-620, 48 h
[2] = test system: NCI-H460; experiment: Cytotoxicity against human NCI-H460 cells assessed as reduction in cell viability upto 30 uM incubated for 48 hrs by MTT assay; type: cell-based; details: nci-h460, 48 h
[3] = test system: Candida albicans; experiment: Antifungal activity against Candida albicans ATCC 90028 assessed as reduction in fungal growth at 0.01 to 30 uM incubated for 24 hrs by spectrophotometry based broth microdilution assay; type: functional, organism-based
[4] = test system: Bacillus subtilis; experiment: Antibacterial activity against Bacillus subtilis ATCC 6633 assessed as reduction in […] growth at 0.01 to 30 uM incubated for 24 hrs by spectrophotometry based broth microdilution assay; type: functional, organism-based
[5] = test system: Staphylococcus aureus; experiment: Antibacterial activity against Staphylococcus aureus ATCC 9144 assessed as reduction in […] growth at 0.01 to 30 uM incubated for 24 hrs by spectrophotometry based broth microdilution assay; type: functional, organism-based
[6] = test system: Streptococcus pyogenes; experiment: Antibacterial activity against Streptococcus pyogenes ATCC 12344 assessed as reduction in […] growth at 0.01 to 30 uM incubated for 24 hrs by spectrophotometry based broth microdilution assay; type: functional, organism-based
[7] = test system: Escherichia coli; experiment: Antibacterial activity against Escherichia coli ATCC 11775 assessed as reduction in […] growth at 0.01 to 30 uM incubated for 24 hrs by spectrophotometry based broth microdilution assay; type: functional, organism-based
[8] = test system: Staphylococcus aureus; experiment: Antibacterial activity against methicillin-resistant Staphylococcus aureus AUS-RBWH-MRSA-02 assessed as reduction in […] growth at 0.01 to 30 uM incubated for 24 hrs by spectrophotometry based broth microdilution assay; type: functional, organism-based
[9] = test system: Escherichia coli; experiment: Antibacterial activity against Escherichia coli KUW-kw-AmH-11 assessed as reduction in […] growth at 0.01 to 30 uM incubated for 24 hrs by spectrophotometry based broth microdilution assay; type: functional, organism-based
[10] = test system: Pseudomonas aeruginosa; experiment: Antibacterial activity against IMP producing Pseudomonas aeruginosa UAE-DBI-ZMH-91 assessed as reduction in […] growth at 0.01 to 30 uM incubated for 24 hrs by spectrophotometry based broth microdilution assay; type: functional, organism-based
[11] = test system: Pseudomonas aeruginosa; experiment: Antibacterial activity against VIM producing Pseudomonas aeruginosa SA-EP-KFUH-40 assessed as reduction in […] growth at 0.01 to 30 uM incubated for 24 hrs by spectrophotometry based broth microdilution assay; type: functional, organism-based
[12] = test system: Klebsiella pneumoniae; experiment: Antibacterial activity against NDM-producing Klebsiella pneumoniae SA-Rd-KAMC-037 assessed as reduction in […] growth at 0.01 to 30 uM incubated for 24 hrs by spectrophotometry based broth microdilution assay; type: functional, organism-based
[13] = test system: Klebsiella pneumoniae; experiment: Antibacterial activity against OXA-48-producing Klebsiella pneumoniae SA-Rd-KAMC-014 assessed as reduction in […] growth at 0.01 to 30 uM incubated for 24 hrs by spectrophotometry based broth microdilution assay; type: functional, organism-based
[14] = test system: Acinetobacter baumannii; experiment: Antibacterial activity against OXA-23-producing Acinetobacter baumannii SA-Rd-KAMC-083 assessed as reduction in […] growth at 0.01 to 30 uM incubated for 24 hrs by spectrophotometry based broth microdilution assay; type: functional, organism-based
[15] = test system: Enterococcus faecalis; experiment: Antibacterial activity against vancomycin-resistant Enterococcus faecalis AUS-RBWH-VRE-01 assessed as reduction in […] growth incubated for 24 hrs by spectrophotometry based broth microdilution assay; type: functional, organism-based; details: Enterococcus faecalis, AUS-RBWH-VRE-01, 24 h; read-out: IC50
[16] = test system: Enterococcus faecalis; experiment: Antibacterial activity against vancomycin-resistant Enterococcus faecalis AUS-RBWH-VRE-01 assessed as fold reduction in growth by measuring colony formation unit at 30 uM incubated for 24 hrs by time kill assay; type: functional
[17] = Prodrug conversion in vancomycin-resistant Enterococcus faecalis AUS-RBWH-VRE-01 assessed as hydrolysis product butenolide formation at 30 uM incubated for 24 hrs by UHPLC-DAD-ESIMS analysis; type: ADME
[18] = Prodrug conversion in vancomycin-resistant Enterococcus faecalis AUS-RBWH-VRE-01 assessed as hydrolysis product butenolide formation at 30 uM incubated for 3-6 hrs by UHPLC-DAD-ESIMS analysis; type: ADME
[19] = Prodrug conversion in vancomycin-resistant Enterococcus faecalis AUS-RBWH-VRE-01 assessed as hydrolysis product divirensol B formation at 30 uM incubated for 24 hrs by UHPLC-DAD-ESIMS analysis; type: ADME
[20] = test system: Enterococcus faecalis; experiment: Antibacterial activity against vancomycin-resistant Enterococcus faecalis AUS-RBWH-VRE-01 assessed as colony formation unit at 30 uM incubated for 24 hrs by time kill assay; type: functional
[21] = Prodrug conversion in vancomycin-resistant Enterococcus faecalis AUS-RBWH-VRE-01 assessed as hydrolysis product trivirensol B formation at 30 uM incubated for 24 hrs by UHPLC-DAD-ESIMS analysis; type: ADME

| SMILES | Activity [1] | Activity [2] | Activity [3] | Activity [4] | Activity [5] | Activity [6] | Activity [7] | Activity [8] | Activity [9] | Activity [10] | Activity [11] | Activity [12] | Activity [13] | Activity [14] | pIC50 [15] | fold change (FC) [16] | Drug metabolism [17] | further results |
| --- | --- | --- | --- | --- | --- | --- | --- | --- | --- | --- | --- | --- | --- | --- | --- | --- | --- | --- |
| CC(C)[C@H]1CC[C@@](O)(COC(=O)/C(=C/[C@@H]2[C@@H](C(C)C)CC[C@@]3(O)COC(=O)[C@@H]23)CO)[C@@H](C(=O)O)[C@@H]1/C=C(\CO)C(=O)O[C@@]12CC[C@H](C(C)C)[C@@H](/C=C(\CO)C(=O)O)[C@@H]1C(=O)OC2 | Non-Toxic | Non-Toxic | inactive | inactive | inactive | inactive | inactive | inactive | inactive | inactive | inactive | inactive | inactive | inactive | 5.00 | 1000 | Metabolite_Notdetected | Drug metabolism [18]: Metabolite_Detected |
| CC(C)[C@H]1CC[C@@](O)(COC(=O)/C(=C/[C@@H]2[C@@H](C(C)C)CC[C@@]3(O)COC(=O)[C@@H]23)CO)[C@H]2C(=O)OCC(C(=O)O)=C[C@H]12 | Non-Toxic | Non-Toxic | inactive | inactive | inactive | inactive | inactive | inactive | inactive | inactive | inactive | inactive | inactive | inactive | – | – | Metabolite_Notdetected | Activity [16]: Active; Drug metabolism [19]: Metabolite_Detected |
| CCCCCCCCCC(=O)N[C@@H](Cc1c[nH]c2ccccc12)C(=O)N[C@H](CC(N)=O)C(=O)N[C@@H](CC(=O)O)C(=O)N[C@@H]1C(=O)NCC(=O)N[C@@H](CCCN)C(=O)N[C@@H](CC(=O)O)C(=O)N[C@H](C)C(=O)N[C@@H](CC(=O)O)C(=O)NCC(=O)N[C@H](CO)C(=O)N[C@@H]([C@H](C)CC(=O)O)C(=O)N[C@@H](CC(=O)c2ccccc2N)C(=O)O[C@@H]1C | – | – | – | – | – | – | – | – | – | – | – | – | – | – | – | – | – | Activity [20]: 50 CFU/ml |
| CC(C)[C@H]1CC[C@@](O)(COC(=O)C2=C[C@@H]3[C@@H](C(C)C)CC[C@@](O)(COC(=O)/C(=C/[C@@H]4[C@@H](C(C)C)CC[C@@]5(O)COC(=O)[C@@H]45)CO)[C@H]3C(=O)OC2)[C@H]2C(=O)OCC(C(=O)O)=C[C@H]12 | Non-Toxic | Non-Toxic | inactive | inactive | inactive | inactive | inactive | inactive | inactive | inactive | inactive | inactive | inactive | inactive | 5.10 | 10000 | Metabolite_Notdetected | Drug metabolism [21]: Metabolite_Detected |
